According to patent publication EP0725068A1 (TOKYO TANABE COMPANY LIMITED, priority 1993, dated 1995):
Counter-ions that a name gives are not always drawn. Like-named read-outs stand apart in the source and are kept apart here.

Key:
colonic 5-HT3 receptors = target: T1, colonic 5-HT3 receptors (Cavia porcellus, UniProt O70212); assay: Colonic 5-HT3 receptor antagonism: inhibition of 2-methylserotonin-induced contraction of isolated distal colon (Test 1); assay type: biochemical, guinea pigs; settings: for M (×10^-9 Mole): molar antagonist concentration corresponding to pA2, guinea pig distal colon, 2-methylserotonin; for Kb: pA2, isolated guinea pig distal colon
T1 construct: the distal colons (3-10 cm from the anus) were isolated and suspended in a Magnus tube filled with Krebs solution; from tissue; host or cells: isolated distal colon of male Hartley guinea pig
T1 sequence (O70212 20-490): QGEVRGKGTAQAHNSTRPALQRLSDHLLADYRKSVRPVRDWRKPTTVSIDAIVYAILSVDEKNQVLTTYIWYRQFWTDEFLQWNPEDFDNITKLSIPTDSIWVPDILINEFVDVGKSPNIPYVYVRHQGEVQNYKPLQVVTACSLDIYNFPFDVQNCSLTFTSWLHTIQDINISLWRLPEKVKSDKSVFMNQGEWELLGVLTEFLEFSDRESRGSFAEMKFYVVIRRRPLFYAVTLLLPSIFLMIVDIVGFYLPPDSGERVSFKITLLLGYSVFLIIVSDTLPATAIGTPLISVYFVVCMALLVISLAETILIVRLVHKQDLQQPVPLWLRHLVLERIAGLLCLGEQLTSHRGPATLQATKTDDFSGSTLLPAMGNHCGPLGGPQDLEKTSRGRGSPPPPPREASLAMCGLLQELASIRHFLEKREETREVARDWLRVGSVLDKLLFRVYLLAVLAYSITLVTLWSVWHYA

cardiac 5-HT3 receptors = target: T2, cardiac 5-HT3 receptors (Rattus norvegicus, UniProt P35563); assay: Antagonism against von Bezold-Jarisch reflex (BJ reflex): serotonin-induced reflexive bradycardia (Test 2); assay type: in vivo, SD rats; settings: for ED50: rat, intravenous, 5 minutes prior to 30 µg/kg serotonin i.v., anesthetized male SD rats, read-out: ID50 (the source's name)
T2 construct: from tissue; host or cells: whole anaesthetised male SD rat (in vivo)
T2 sequence (P35563 24-483): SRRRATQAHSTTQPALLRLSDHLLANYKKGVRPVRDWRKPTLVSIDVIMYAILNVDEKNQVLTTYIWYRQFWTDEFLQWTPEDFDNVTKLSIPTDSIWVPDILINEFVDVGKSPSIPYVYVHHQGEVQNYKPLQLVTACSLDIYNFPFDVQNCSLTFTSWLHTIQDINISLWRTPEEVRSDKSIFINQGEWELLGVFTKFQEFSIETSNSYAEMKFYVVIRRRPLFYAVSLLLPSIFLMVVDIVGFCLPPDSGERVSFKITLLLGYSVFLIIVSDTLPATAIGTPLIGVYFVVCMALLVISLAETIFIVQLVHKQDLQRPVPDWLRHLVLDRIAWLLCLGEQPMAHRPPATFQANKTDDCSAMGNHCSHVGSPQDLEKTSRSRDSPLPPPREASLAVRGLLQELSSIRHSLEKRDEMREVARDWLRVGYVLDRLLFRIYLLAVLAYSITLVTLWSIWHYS
Protocol: This test was conducted following the method of Fozard, at al. (Arch. Pharmacology, 326, 36-44, 1984). Male SD rats with a body weight of around 300 g were anesthetized by intraabdominal administration of 1.25 g/kg urethane, and an intravenous injection cannula was inserted in the right femoral vein while a sphygmomanometric cannula was inserted into the left femoral artery. The pulse was determined by measuring the electrocardiogram R waves (secondary induction) with an instantaneous pulse rate meter. After confirming satisfactory reproducibility of the reflexive bradycardia induced by intravenous administration of 30 µg/kg serotonin, the test compounds were intravenously administered 5 minutes prior to serotonin administration, the inhibition rates with respect to the initial values were found and the 50% inhibition doses (ID50) were calculated.

[1] = test system: restraint stress-induced diarrhea; assay: Inhibiting effect on restraint stress-induced diarrhea, oral administration (Test 3); assay type: in vivo, Wistar rats; settings: for No. of animals with diarrhea / No. of animals used: feces observed 5 hours; for inhibition at 0.01 mg/kg: Rattus norvegicus, po, 1 h, read-out: Inhibition rate
Protocol: This test was conducted following the method of Miyata, et al. (The Journal of Pharmacology and Experimental Therapeutics Vol.261, No.1, 297 (1992)). Nine to ten-week-old male Wistar rats starved overnight were placed in stress cages and their feces produced in 5 hours were observed. Of 15 rats, 14 developed diarrhea. The test compounds were administered orally one hour prior to placement in the stress cage, and the rate of inhibition on diarrhea was measured.

stress-related diarrhea = settings: animal models; J. Pharmacol. Exp. Ther. 261, 297 (1992); cited from earlier work
[2] = contraction induced by 2-methylserotonin
[3] = 10μg/kg orally one hour prior to stress cage

Row | Compound | M (×10^-9 Mole) (colonic 5-HT3 receptors) | Kb (colonic 5-HT3 receptors; [2]) [nM] | also measured
1 | Cc1[nH]cnc1CN1CCc2c(c3cccc4c3n2CC4)C1=O [B, 4,5,7,8-tetrahydro-9-[(5-methyl-1H-imidazol-4-yl)methyl]-pyrido[4,3-b]pyrrolo[3,2,1-hi]indol-10(9H)-one] | 10 ×10^-9 Mole | > 10 | 
2 | Cc1[nH]cnc1CN1CCc2c(c3cccc4c3n2C(c2ccccc2)CC4)C1=O.Cl (stereo not drawn) [Compound 1, 5,6,8,9,10,11-hexahydro-10-[(5-methyl-1H-imidazol-4-yl)methyl]-6-phenyl-11-oxo-4H-pyrido[3',4':4,5]pyrrolo[3,2,1-ij] quinoline hydrochloride] | 0.41 ×10^-9 Mole | 0.398 | activity on the heart receptors relative to Ondansetron (cardiac 5-HT3 receptors; BJ reflex ID50 ratio, vs Ondansetron): about 4 times; activity on the heart receptors relative to YM-060 (cardiac 5-HT3 receptors; BJ reflex ID50 ratio, vs YM-060): about 1/19; ED50 (cardiac 5-HT3 receptors): 0.5 µg/kg; selectivity for colonic 5-HT3 receptors relative to Allosetron (colonic 5-HT3 receptors; from Tests 1 and 2 (colon vs heart), vs Allosetron): about 90 times; selectivity for colonic 5-HT3 receptors relative to Ondansetron (colonic 5-HT3 receptors; from Tests 1 and 2 (colon vs heart), vs Ondansetron): about 125 times; selectivity for colonic 5-HT3 receptors relative to YM-060 (colonic 5-HT3 receptors; from Tests 1 and 2 (colon vs heart), vs YM-060): about 190 times; selectivity for colonic 5-HT3 receptors relative to compound A (colonic 5-HT3 receptors; from Tests 1 and 2 (colon vs heart), vs compound A): about 100 times; No. of animals with diarrhea / No. of animals used [1, 3]: 5/10; inhibition at 0.01 mg/kg [1]: 50%
3 | Cc1[nH]cnc1CN1CCCc2c(c3cccc4c3n2CCC4)C1=O [F, 11-[(5-methyl-1H-imidazol-4-yl)methyl]-5,6,9,10,11,12-hexahydro-4H,8H-azepino[3',4':4,5]pyrrolo[3,2,1-ij]quinolin-12-one] | >10 ×10^-9 Mole | > 10 | 
4 | CN1C2CCC1CC(N1CCc3c(c4cccc5c4n3CCC5)C1=O)C2 (stereo not drawn) [H] | >10 ×10^-9 Mole | > 10 | 
5 | Cc1[nH]cnc1CN1CCc2c(c3cccc4c3n2CCC4)C1=O [A, 5,6,9,10-tetrahydro-10-[(5-methyl-1H-imidazol-4-yl)methyl]-4H-pyrido[3',4':4,5]pyrrolo[3,2,1-ij] quinolin-11(8H)-one] | 10 ×10^-9 Mole | 10 | ED50 (cardiac 5-HT3 receptors): 0.11 µg/kg; No. of animals with diarrhea / No. of animals used [1, 3]: 8/10; inhibition at 0.01 mg/kg [1]: 20%
6 | CN1C2CCCC1CC(NC(=O)c1nn(C)c3ccccc13)C2 (stereo not drawn) [Granisetron, N-(endo-9-methyl-9-azabicyclo[3,3,1]non-3-yl)-1-methylindazol-3-carboxamide hydrochloride] |  |  | suppression of stress-related diarrhea (stress-related diarrhea): suppress stress-related diarrhea in animal models
7 | Cc1[nH]cnc1CN1CCCc2c(c3cccc4c3n2CC4)C1=O [D, 4,5,7,8,9,10-hexahydro-10-[(5-methyl-1H-imidazol-4-yl)methyl]-11H-azepino[4,3-b]pyrrolo[3,2,1-hi]indol-11-one] | >10 ×10^-9 Mole | > 10 | 
8 | Cc1[nH]cnc1CN1CCc2c(c3cccc4c3n2CCO4)C1=O [C, 1,2,9,10-tetrahydro-8-[(5-methyl-1H-imidazol-4-yl)methyl]pyrido[3',4':4,5]pyrrolo[1,2,3-de][1,4]benzoxadin-7(8H)-one] | >10 ×10^-9 Mole | > 10 | 
9 | Cc1[nH]cnc1CN1CCc2c(c3cccc4c3n2CCCC4)C1=O [E] | >10 ×10^-9 Mole |  | pA2 (colonic 5-HT3 receptors; isolated guinea pig distal colon, contraction induced by 2-methylserotonin): <8.0
10 | Cc1[nH]cnc1CN1CCc2c(c3ccccc3n2C)C1=O.Cl [Allosetron hydrochloride, 2,3,4,5-tetrahydro-5-methyl-2-[(5-methyl-1H-imidazol-4-yl)methyl]-1H-pyrido[4,3-b]indol-1-one hydrochloride] | 21 ×10^-9 Mole | 20 | ED50 (cardiac 5-HT3 receptors): 0.28 µg/kg
11 | Cl.Cn1cc(C(=O)[C@@H]2CCc3nc[nH]c3C2)c2ccccc21 [YM-060, (R)-(-)-5-[(1-methylindol-3-yl)carbonyl]-4,5,6,7-tetrahydrobenzimidazole hydrochloride] | 4.5 ×10^-9 Mole | 3.98 | suppression of stress-related diarrhea (stress-related diarrhea): suppress stress-related diarrhea in animal models; No. of animals with diarrhea / No. of animals used [1, 3]: 7/10; inhibition at 0.01 mg/kg ([1]; 10μg/kg orally one hour prior to stress cage, inhibition of diarrhea): 30%
12 | O=C1c2c(n3c4c(cccc24)CCC3)CCN1C1CN2CCC1CC2 (stereo not drawn) [I, 10-(1-azabicyclo-[2,2,2]oct-3-yl)-5,6,8,9,10,11-hexahydro-4H-pyrido[3',4':4,5]pyrrolo[3,2,1-ij]quinolin-11-one] | >10 ×10^-9 Mole | > 10 | 
13 | Cc1[nH]cnc1CN1CCc2c(c3cccc4c3n2-c2ccccc2CC4)C1=O [G, 3-[(4-methyl-1-H-imidazol-5-yl)methyl]-1,2,3,4,8,9-hexahydro-pyrido[4',3':2,3]indolo[1,7a,7-ab][1]benzazepin-4-one] | >10 ×10^-9 Mole | > 10 | 
14 | Cc1nccn1CC1CCc2c(c3ccccc3n2C)C1=O (stereo not drawn) [Ondansetron hydrochloride, 1,2,3,4-tetrahydro-9-methyl-3-[(2-methyl-1H-imidazol-1-yl)methyl]-4H-carbazol-4-one hydrochloride dihydrate] | 227 ×10^-9 Mole | 251 | ED50 (cardiac 5-HT3 receptors): 2 µg/kg; suppression of stress-related diarrhea (stress-related diarrhea): suppress stress-related diarrhea in animal models
